From patent US10206989B2, “CDCA1 epitope peptides for Th1 cells and vaccines containing the same” (OncoTherapy Science, Inc., priority 2012, dated 2019) come the findings set out here.

For one assay, the system named is PBMCs (Th cells). In words: CDCA1-LP specific CD4+ T-cell responses in PBMCs of HNC patients and healthy donors, IFN-gamma ELISPOT. It counts as cell-based, human. The protocol:
In the ELISPOT assays for HNC patients, after 1 week of cell culture with CDCA1-LPs, the cells were collected, washed, and cultured in ELISPOT plates (1×10^5/well) with CDCA1 (55-78)-LP, CDCA1 (39-64)-LP, or control LP (HIV-LP) for 18 h. The number of CDCA1-LP-specific Th cells expressed as spot-forming cells/10^5 cells was calculated after subtracting control values (background). Responses were scored as positive when the mean number of IFN-gamma spots numbered more than 15 and more than 2-fold over background. The ELISPOT assays on HNC patients' cells were conducted in single, duplicate, or triplicate wells because of the limited number of available cells.
The PBMCs from the heparinized blood of HNC patients were isolated by means of Ficoll-Conray density gradient centrifugation. Fresh PBMCs from HNC patients or healthy donors were cultured with a mixture of CDCA1 (39-64)-LP and CDCA1 (55-78)-LP (10 micro g/mL each) in a final volume of 2 ml AIM-V supplemented with 5% human decomplemented plasma at 37 degrees C. (2×10^6/well, 24-well plates); IL-2 and IL-7 were added on day 0 and day 2. After 1 week of cell culture, the number of antigen-specific IFN-gamma producing T-cells was counted by ELISPOT assay. This study was conducted in a laboratory that operates under exploratory research principles, and was performed using investigative protocols. The inventors acknowledge the recommendations of the Minimal Information About T-cell Assay (MIATA) reporting framework for human T-cell assays (Britten C M et al., Immunity 2012; 37:1-2.).

For assay [1], the system named is CDCA1-A24 (56-64)-specific CTLs. In words: In vitro cross-presentation assay with unfixed or fixed DCs, intracellular IFN-gamma. It counts as cell-based, human. As to conditions: cross presented by unfixed DCs (DC+LP); peptide 16 micro M, 3 h pulse. The protocol: An HLA-A24^+ donor (HD2)-derived DCs were kept alive or fixed for 3 min in 0.1% glutaraldehyde (Sigma-Aldrich), pulsed with peptides (16 micro M) for 3 h, and washed 3 times. OK432 (0.1 KE/mL, Chugai Pharmaceutical Co, Tokyo, Japan) was added to induce the maturation of DCs during and after the peptide pulse. CDCA1-A24 (56-64)-reactive bulk CTLs were added at a 2:1 ratio for 6 h in medium containing 10 micro g/mL brefeldin A (Sigma-Aldrich). The brefeldin A was added to inhibit protein secretion during the stimulation. IFN-gamma production by the CDCA1-A24 (56-64)-specific CTLs was measured by intracellular labeling. The cells were stained with a FITC-labeled anti-human IFN-gamma mAb (BioLegend) in combination with a PerCP-labeled anti-human CD8 mAb (BioLegend) and a PE-labeled CDCA1-A24 (56-64)-specific tetramer. Data acquisition was performed on a FACSCalibur (BD Biosciences) and data files were analyzed with FlowJo software (Tree Star, Ashland, Oreg.).

Setting [2] is: HNC patients after vaccination with CDCA1-A24 (56-64) SP.

As to “NPKPEVLHMIYMRALQIVYGIRLEHF [CDCA1 (39-64)]”, in the assay with PBMCs (Th cells) (setting [2]), the “Patients with CDCA1-LP-specific Th cell responses (number)” value was 12 of 16 and the “Patients with CDCA1-LP-specific Th cell responses (proportion)” value was found to be 75%. Besides, in the assay with PBMCs (Th cells) (all HNC patients), the “HNC patients with CDCA1-LP-specific immune responses (number)” value was 14 of 19 and the “HNC patients with CDCA1-LP-specific immune responses (proportion)” value was found to be 74%. Further, in the assay with PBMCs (Th cells) (patients before vaccination), the “Patients with detectable CDCA1-LP-specific Th cell responses (number)” value is reported as 2 of 7 and the “Patients with detectable CDCA1-LP-specific Th cell responses (proportion)” value came out at 29%. For the same sequence, the “IFN-gamma secreting tetramer+ CD8+ T-cells” value in assay [1] is given as “significant proportion”.
